Assay results published in patent US11059875B2, “Composition for preventing or treating cardiofaciocutaneous syndrome” (Korea Advanced Institute of Science and Technology, priority 2018, dated 2021).
“Also recorded” adds a separate entry of the source.

Experiments:
Type in all cases: cell-based, human
[1] = test system: osteoblasts differentiated from CFC-MSCs; assay: ALP enzyme activity (ALP kit staining) in osteoblasts differentiated from CFC-MSCs; settings: treated on day 1 for 24 hours (U0126 5 μM, SB-431542 5 μM, BMP4 50 ng/ml), measured on 7th day of differentiation, FIG. 13
Method: (§1) To differentiate into osteoblasts, the MSCs were treated with 0.25% trypsin-EDTA at 37° C. for 2 minutes and separated from the culture dish. The cells were spread on a 4-well culture dish at the density of 2.5×10^4 cells/cm^2, which were cultured in MSC culture medium at 37° C. for 3 days until the cells were full. 3 days later, the medium was replaced with STEMPRO osteogenesis differentiation Medium (Invitrogen), and the medium was replaced every three days. The activity of ALP, which is an enzyme essential for the formation of hydroxyapatite, a major component of bone mineral, and an indicator of osteoblast differentiation, was investigated at 7 day intervals by using an ALP kit (Leucocyte Alkaline Phosphatase Kit, Sigma-Aldrich). […] The cells were washed with distilled water twice and the degree of color change into red was measured to investigate the calcium ion deposition.
(§2) Particularly, the differentiation of CFC-MSCs into osteoblasts was induced by the same manner as described in Experimental Example <2-2>. […] ALP enzyme activity was measured on the 7th day of the differentiation, and alizarin red S staining was performed on the 14th day of the differentiation by the same manner as described in Experimental Example <2-2>. […] After washing the cells with distilled water twice, the amount of calcium deposition was evaluated by the degree of darkening.

[2] = test system: osteoblasts differentiated from CFC-MSCs; assay: Bone mineral deposition (alizarin red S and von Kossa staining) in osteoblasts differentiated from CFC-MSCs; settings: treated on day 1 for 24 hours (U0126 5 μM, SB-431542 5 μM, BMP4 50 ng/ml), alizarin red S day 14, von Kossa day 21, FIG. 14
Method: as §1, §2

[3] = test system: osteoblasts differentiated from CFC-iPSCs; assay: Differentiation of CFC syndrome patient derived iPSCs into osteoblasts through mesenchymal stem cells; settings: CFC patient iPSC-derived cells; FIG. 13 to FIG. 15
Excerpt: […] The iPSCs derived from wild type (WT) individuals and the iPSCs derived from CFC syndrome patients were induced to be differentiated in vitro for about 30 days by referring to the protocol proposed in a previous paper (Mahmood, Harkness et al. 2010). Particularly, CFC-iPSC colony was divided into 4 to 9 sections (0.5 mm×0.5 mm/each section) by using a tissue chopper provided from Mickle Laboratory Engineering Co. The sections were treated with 10 mg/ml of dispase at 37° C. for 4 minutes and then the sections were detached from the cell culture dish. The separated cell sections were transferred in a Petri dish, followed by culture in EB medium (embryoid body differentiation medium), the Dulbecco's modified Eagle's medium (DMEM/F12) supplemented with 10% serum replacement (SR), 1% penicillin-streptomycin and 1% non-essential amino acids, for a day. […]
To differentiate into osteoblasts, the MSCs were treated with 0.25% trypsin-EDTA at 37° C. for 2 minutes and separated from the culture dish. […] The cells were washed with distilled water twice and the degree of color change into red was measured to investigate the calcium ion deposition. […]

Molecule	ALP enzyme activity [1]	bone mineral deposition [2]	differentiation ability into osteoblasts [3]
NC(=O)c1ccc(-c2nc(-c3ccc4c(c3)OCO4)c(-c3ccccn3)[nH]2)cc1 [SB-431542]	increase	increase	improved; also recorded: efficient in improving the differentiation ability
BMP4: recombinant human bone morphogenic protein 4, BMP signaling pathway activator, SEQ. ID. NO: 13 (R&D systems) (protein, listed as Homo sapiens) MIPGNRMLMVVLLCQVLLGGASHASLIPETGKKKVAEIQGHAGGRRSGQSHELLRDFEATLLQMFGLRRRPQPSKSAVIPDYMRDLYRLQSGEEEEEQIHSTGLEYPERPASRANTVRSFHHEEHLENIPGTSENSAFRFLFNLSSIPENEVISSAELRLFREQVDQGPDWERGFHRINIYEVMKPPAEVVPGHLITRLLDTRLVHHNVTRWETFDVSPAVLRWTREKQPNYGLAIEVTHLHQTRTHQGQHVRISRSLPQGSGNWAQLRPLLVTFGHDGRGHALTRRRRAKRSPKHHSQRARKKNKNCRRHSLYVDFSDVGWNDWIVAPPGYQAFYCHGDCPFPLADHLNSTNHAIVQTLVNSVNSSIPKACCVPTELSAISMLYLDEYDKVVLKNYQEMVVEGCGCR	increase	increase	efficient in improving the differentiation ability
